Experimental data taken from paper PMC11477298, “Small Molecules Inducing Autophagic Degradation of Expanded Polyglutamine Protein through Interaction with Both Mutant ATXN3 and LC3” (International Journal of Molecular Sciences, 2024).

Key:
[1] = system: ATXN3-Q75-GFP SH-SY5Y cells; experiment: High-content neurite outgrowth assay; type: cell-based, human; conditions: compound 10 µM, range over the four named compounds; for Neurite branch: untreated 1.16; for Neurite process: untreated 2.41; for Neurite length: untreated 23.2 µm
Protocol: ATXN3-Q75-GFP SH-SY5Y cells (5 × 10^4/well) were plated onto 24-well plates, with retinoic acid addition (10 µM; Sigma-Aldrich) on day 1 to initiate neuronal differentiation. On day 2, the cells were pretreated with disaccharide trehalose (10 mM, as a positive control) or the studied compounds (10 μM) for 8 h, followed by the addition of doxycycline (5 μg/mL, Sigma-Aldrich) to induce ATXN3-Q75-GFP expression. The cells were kept in the medium containing retinoic acid, the test compound, and doxycycline for 6 days, with the culture medium changed on day 5. ATXN3-Q75 aggregation and neurite outgrowth assays were performed on day 8 using a high-content imaging system (ImageXpress Micro Confocal; Molecular Devices).
For the aggregation assay, cells were stained with Hoechst 33342 (0.1 µg/mL; Sigma-Aldrich) at 37 °C for 30 min. Images of the cells were automatically obtained at excitation/emission wavelengths of 482/536 nm (FITC [fluorescein isothiocyanate] filter) for enhanced GFP and 377/447 nm (DAPI [4′,6-diamidino-2-phenylindole] filter) for nucleus counting. ATXN3-Q75 aggregation was determined by Transfluor technology based on GFP fluorescence intensity. For the neurite outgrowth assay, cells were fixed with 4% paraformaldehyde for 30 min, permeabilized with 0.1% Triton X-100 for 10 min, and blocked by non-specific binding with 3% bovine serum albumin for 20 min. The primary TUBB3 (neuronal class III β-tubulin) antibody (1:1000; BioLegend #802001, San Diego, CA, USA) was used to stain cells at 4 °C overnight, followed by Alexa Fluor 555-donkey anti-rabbit IgG secondary antibody (1:1000; Invitrogen #A-31572) staining for 2 h at room temperature. Nuclei were detected using DAPI (0.1 μg/mL; Sigma-Aldrich). Cell images were obtained at excitation/emission wavelengths of 531/593 nm (TRITC [tetramethylrhodamine] filter) for stained neurites and 377/447 nm (DAPI filter) for nuclei. To quantify neurite outgrowth, microscopic images were segmented with multi-colored masks to assign each outgrowth to a cell body for quantification. Neurite total length (μm) and numbers of process (primary neurites originating from neuronal cell body) and branch (secondary neurites extended from primary neurites) were analyzed (Neurite Outgrowth Application Module; Molecular Devices). In general, […] in each biological replicate were analyzed.

[2] = system: 293T cells co-expressing ATXN3-Q75-VC and VN-LC3; experiment: BiFC high-content analysis of transfected 293T cells; type: cell-based, human; conditions: compound 10 μM; 24 h post-induction; untreated = 100%; range over the three named compounds
Description: pTRE3G-BI-VN-LC3-ATXN3-Q14−75-VC was constructed by subcloning the ATXN3-Q14−75-VC KpnI-XbaI fragment and VN-LC3 BamHI fragment of the aforementioned plasmids into the corresponding restriction sites in multiple cloning site (MCS)-2 (ATXN3-Q14−75-VC fragment) or MCS-1 (VN-LC3 fragment) of the pTRE3G-BI vector (Clontech, Mountain View, CA, USA). The resulting plasmid allows the simultaneous expression of ATXN3-Q14−75-VC and VN-LC3 proteins from a bidirectional, Tet-responsive promoter that binds the Tet-On 3G trans-activator protein in the presence of doxycycline and co-transfected pCMV-Tet3G. Next, 293T cells (2 × 10^5) were plated onto 6-well plates on day 1. Upon the next day, the constructed pTRE3G-BI-VN-LC3-ATXN3-Q 14−75-VC (2 μg) together with pCMV-Tet3G (0.5 μg) were transiently co-transfected into cells using GenJet in vitro DNA transfection reagent (SignaGen Laboratories #SL100488, Rockville, MD, USA). Doxycycline (1 μg/mL) was added to cells to induce ATXN3-Q14−75-VC and VN-LC3 expression on day 3. Cell lysates were prepared at 24 h post-induction and analyzed by Western blot using ataxin-3 (1:1000; Invitrogen #PA5-26251) or LC3 (1:2000; MBL International #PM036) antibody. In addition, at 0, 6, 9, 12, and 24 h post-transfection, the pTRE3G-BI-VN-LC3-ATXN3-Q75-VC transfected cells were fixed, permeabilized, blocked, and stained with 5TF1-1C2 (1:1000; Merck #MAB1574) antibody at 4 °C overnight, followed by Cy5-donkey anti-mouse IgG secondary antibody (1:1000; Jackson ImmunoResearch #715-175-151) staining for 2 h at room temperature. Nuclei were counterstained with DAPI (0.1 μg/mL; Sigma-Aldrich). Cell images were obtained at excitation/emission wavelengths of 482/536 nm (FITC filter) for Venus, 631/692 nm (Cy5 filter) for stained expanded ATXN3-Q75 protein, and 377/447 nm (DAPI filter) for detecting nuclei (ImageXpress Micro Confocal; Molecular Devices).
On day 3, doxycycline (1 μg/mL) was added to the aforementioned transfected 293T cells along with NC009-1, -2, or -6 or LM-031 (10 μM). At 24 h post-transfection, the transfected cells were fixed, permeabilized, blocked, and stained with 5TF1-1C2 antibody, as described. After nucleus staining (DAPI, 0.1 μg/mL), the captured images were analyzed as described for overlapped ATXN3-Q75 and Venus signals and the green fluorescence of Venus-tagged LC3 puncta using the high-content imaging system, as described.

SMILES	Neurite branch [1]	Neurite process [1]	Neurite length [1]	Green fluorescence of Venus-tagged LC3 puncta [2]	Overlapping of green (Venus) and red (ATXN3-Q75) signals [2]
O=C(c1ccccc1)c1cc2c(O)cccc2oc1=O [LM-031]	1.34–1.37	2.55–2.57	26.1–26.9 µm	121–122%	117–119%
CC(=O)/C(=C\c1ccccc1[N+](=O)[O-])Cc1c[nH]c2ccccc12 [NC009-1]	1.34–1.37	2.55–2.57	26.1–26.9 µm	121–122%	117–119%
CC(=O)/C(=C\c1ccccc1[N+](=O)[O-])Cc1c(C)[nH]c2ccccc12 [NC009-2]	1.34–1.37	2.55–2.57	26.1–26.9 µm	121–122%	117–119%
